In patent US20220112187A1, “PYRAZOLOPYRIDINE AMINE COMPOUNDS FOR THE TREATMENT OF AUTOIMMUNE DISEASE” (Hoffmann-La Roche Inc., priority 2018, published 2022):

target: T1, human TLR9 (Homo sapiens, UniProt Q9NR96); assay: HEK293-Blue-hTLR-9 cells assay (SEAP reporter, ODN2006 stimulation); assay type: cell-based; settings: HEK293-Blue-hTLR9 cells, ODN2006 ligand, 20 hrs incubation
T1 sequence (Q9NR96 26-1032): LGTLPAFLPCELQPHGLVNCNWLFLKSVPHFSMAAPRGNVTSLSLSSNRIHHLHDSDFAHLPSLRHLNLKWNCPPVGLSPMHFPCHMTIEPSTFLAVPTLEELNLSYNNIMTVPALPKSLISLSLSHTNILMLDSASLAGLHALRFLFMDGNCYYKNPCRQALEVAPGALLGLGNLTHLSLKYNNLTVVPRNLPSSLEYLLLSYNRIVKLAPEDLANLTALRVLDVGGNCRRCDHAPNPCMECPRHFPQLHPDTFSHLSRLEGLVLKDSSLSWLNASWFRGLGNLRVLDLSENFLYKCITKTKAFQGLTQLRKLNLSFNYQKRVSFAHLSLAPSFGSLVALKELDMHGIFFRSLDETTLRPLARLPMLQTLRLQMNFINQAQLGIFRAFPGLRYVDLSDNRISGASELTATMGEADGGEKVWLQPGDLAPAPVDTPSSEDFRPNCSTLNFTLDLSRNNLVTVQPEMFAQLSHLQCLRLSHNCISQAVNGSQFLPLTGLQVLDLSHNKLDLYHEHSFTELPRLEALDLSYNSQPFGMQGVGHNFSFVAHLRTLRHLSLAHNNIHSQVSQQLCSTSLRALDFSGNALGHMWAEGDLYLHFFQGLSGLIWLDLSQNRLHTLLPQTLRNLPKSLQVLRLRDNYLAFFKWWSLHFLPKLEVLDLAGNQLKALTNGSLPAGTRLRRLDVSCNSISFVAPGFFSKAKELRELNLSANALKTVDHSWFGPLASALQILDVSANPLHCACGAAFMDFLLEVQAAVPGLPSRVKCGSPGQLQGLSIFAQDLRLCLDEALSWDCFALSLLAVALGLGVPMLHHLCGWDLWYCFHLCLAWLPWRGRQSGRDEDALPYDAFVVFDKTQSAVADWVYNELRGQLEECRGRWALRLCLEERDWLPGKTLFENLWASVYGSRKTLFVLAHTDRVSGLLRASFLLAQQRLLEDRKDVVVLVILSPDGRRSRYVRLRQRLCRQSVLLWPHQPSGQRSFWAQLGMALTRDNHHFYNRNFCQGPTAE
Summary of the method: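 HEK293-Blue cells stimulated with ODN2006 (10 μL of 20 uM added) plus serially diluted compound, 1% DMSO final, for 20 hrs at 37° C. SEAP in supernatant measured with QUANTI-Blue after 2 hrs at 37° C, absorbance at 620-655 nm; antagonism seen as reduced reporter signal.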

| Compound | IC50 [nM] |
| --- | --- |
| CC1CC(N)CCN1C[C@H]1CN(c2ccc(C#N)n3nccc23)C[C@@H](C)O1 (stereo partly drawn) [Example 51, 4-[(2S,6R)-2-[(4-amino-2-methyl-1-piperidyl)methyl]-6-methyl-morpholin-4-yl]pyrazolo[1,5-a]pyridine-7-carbonitrile] | 230 |
| C[C@@H]1CN(c2ccc(C#N)n3nccc23)C[C@H](CN2CCCC3(CNC3)C2)O1 [Example 33, 4-[(2S,6R)-2-(2,6-diazaspiro[3.5]nonan-6-ylmethyl)-6-methyl-morpholin-4-yl]pyrazolo[1,5-a]pyridine-7-carbonitrile] | 120 |
| C[C@@H]1CN(c2ccc(C#N)n3nccc23)C[C@H](CN2CC3(CCNC3)CC2=O)O1 (stereo partly drawn) [Example 20, 4-[(2R,6R)-2-methyl-6-[(3-oxo-2,7-diazaspiro[4.4]nonan-2-yl)methyl]morpholin-4-yl]pyrazolo[1,5-a]pyridine-7-carbonitrile] | 12000 |
